Assay results reported in US11109593B2, “Isoxazolin-5-one derivative and herbicide containing same as active ingredient” (HOKKO CHEMICAL INDUSTRY CO., LTD., priority 2017, dated 2021).

Columns and labels:
Format in all cases: in vivo
Scirpus juncoides [1] = assay: Test Example 2: herbicidal effect test by treatment during growing period in paddy rice cultivation (seven days after seeding); details: 120 g/10a active ingredient, assessed 14 days after treatment, dry weight vs untreated area
Procedure: (§1) This test was conducted in a double system per one agent solution concentration area, and the herbicidal rates (%) were determined by the following equation (Math. 1) on 14 days after the treatment with the agents. Herbicidal Rate (%)={1-(Average Dry Weight (g) of Plant of Treated Area)/(Average Dry Weight (g) of Plant of Untreated Area)}×100 [Math. 1]
(§2) Herbicidal Effect Test by Treatment During Growing Period in Paddy Rice Cultivation
(§3) Wagner pots with an area of 1/10000 ares were filled with a paddy soil, and after adding water, a compound fertilizer (N:P:K=17:17:17) was mixed, followed by soil puddling. Then, Echinochloa crus-galli, broad leaf weeds (Lindernia pyxidaria and Monochoria vaginalis) and Scirpus juncoides, 30 seeds each, were sown in a depth of 0 to 1 cm. Water was poured immediately after seeding, and the water depth was kept at about 3 cm. The subsequent management was conducted in a glass greenhouse. Emulsions prepared using the compounds in Table 4 below according to Formulation Example 5 were diluted with water seven days after seeding, and a certain amount of the water-diluted agent solutions were dropped. The converted amount of the applied active ingredient corresponded to 120 g per 10 ares. The test was conducted in a double system per one agent solution concentration area, and the herbicidal rates (%) were determined by the equation (Math. 1) on 14 days after the treatment with the agents. […] The compound numbers in Table 4 are the same as those in Table 1 and Table 2 above.

[2] = tested on: broad leaf weeds (Lindernia pyxidaria and Monochoria vaginalis); assay: as above; details: 120 g/10a active ingredient, assessed 14 days after treatment, dry weight vs untreated area
Procedure: as §1, §2, §3

Echinochloa crus-galli [3] = assay: as above; details: 120 g/10a active ingredient, assessed 14 days after treatment, dry weight vs untreated area
Procedure: as §1, §2, §3

Scirpus juncoides [4] = assay: Test Example 1: herbicidal effect test by treatment of rice paddy soil (immediately after seeding); details: 120 g/10a active ingredient, dry weight vs untreated area, 14 days after treatment
Procedure: (§4) Herbicidal Effect Test by Treatment of Rice Paddy Soil
(§5) Wagner pots with an area of 1/10000 ares were filled with a paddy soil, and after adding water, a compound fertilizer (N:P:K=17:17:17) was added, followed by soil puddling. Then, Echinochloa crus-galli, broad leaf weeds (Lindernia pyxidaria and Monochoria vaginalis) and Scirpus juncoides, 30 seeds each, were sown in a depth of 0 to 1 cm. Water was poured immediately after seeding, and the water depth was kept at about 3 cm. The subsequent management was conducted in a glass greenhouse. Immediately after that, emulsions prepared using the compounds in Table 3 below according to Formulation Example 5 were diluted with water, and a certain amount of the water-diluted agent solutions were dropped. The converted amount of the applied active ingredient corresponded to 120 g per 10 ares.
as §1
(§6) The compound numbers in Table 3 are the same as those in Table 1 and Table 2 above.

[5] = tested on: broad leaf weeds (Lindernia pyxidaria and Monochoria vaginalis); assay: as above; details: 120 g/10a active ingredient, dry weight vs untreated area, 14 days after treatment
Procedure: as §4, §5, §1, §6

Echinochloa crus-galli [6] = assay: as above; details: 120 g/10a active ingredient, dry weight vs untreated area, 14 days after treatment
Procedure: as §4, §5, §1, §6

Structure (SMILES)	Herbicidal rate (%) Scirpus juncoides (Scirpus juncoides [1]) [%]	Herbicidal rate (%) Lindernia pyxidaria [2] [%]	Herbicidal rate (%) Monochoria vaginalis [2] [%]	Herbicidal rate (%) Echinochloa crus-galli (Echinochloa crus-galli [3]) [%]	Herbicidal rate (%) Scirpus juncoides (Scirpus juncoides [4]) [%]	Herbicidal rate (%) Lindernia pyxidaria [5] [%]	Herbicidal rate (%) Monochoria vaginalis [5] [%]	Herbicidal rate (%) Echinochloa crus-galli (Echinochloa crus-galli [6]) [%]
Cc1c(Cc2ccccc2NS(=O)(=O)C(F)(F)F)c(=O)on1Cc1ccc(F)cc1Cl [Compound 1-201]	40	70	70	40	100	90	80	90
COc1ccc(Cn2oc(=O)c(Cc3ccccc3NS(=O)(=O)C(F)(F)F)c2C)cc1 [Compound 1-195]	80	40	40	80	90	70	60	90
Cc1c(Cc2ccccc2N(S(=O)(=O)C(F)(F)F)S(=O)(=O)C(F)(F)F)c(=O)on1C(C)c1ccc(OC(F)(F)F)cc1 (stereo not shown) [Compound 1-1036]	60	60	60	40	70	60	60	70
Cc1c(Cc2ccccc2NS(=O)(=O)C(F)(F)F)c(=O)on1Cc1ccsc1 [Compound 1-232]	60	40	40	70	90	80	90	90
Cc1c(Cc2ccccc2N(S(=O)(=O)C(F)(F)F)S(=O)(=O)C(F)(F)F)c(=O)on1C(C)c1cccc(Cl)c1 (stereo not shown) [Compound 1-1033]	80	80	80	70	90	100	100	90
CCN(c1ccccc1Cc1c(C)n(CC(C)C)oc1=O)S(=O)(=O)C(F)(F)F [Compound 1-263]	90	40	60	90	60	80	50	50
Cc1c(Cc2cc(F)ccc2NS(=O)(=O)C(F)(F)F)c(=O)on1Cc1ccccc1 [Compound 1-31]	70	60	80	50	90	90	80	90
Cc1c(Cc2ccccc2NS(=O)(=O)C(F)(F)F)c(=O)on1Cc1ccc(C(F)(F)F)cc1 [Compound 1-194]	60	60	60	40	80	100	80	80
Cc1c(Cc2ccccc2NS(=O)(=O)C(F)(F)F)c(=O)on1Cc1ccc(F)c(F)c1 [Compound 1-200]	80	90	90	60	90	100	100	90
Cc1c(Cc2ccccc2N(S(=O)(=O)C(F)(F)F)S(=O)(=O)C(F)(F)F)c(=O)on1C(C)c1ccc(F)cc1F (stereo not shown) [Compound 1-1037]	60	60	50	90	90	70	60	90
Cc1c(Cc2ccccc2N(S(=O)(=O)C(F)(F)F)S(=O)(=O)C(F)(F)F)c(=O)on1Cc1ccc(Br)cc1 [Compound 1-1016]	60	70	80	40	80	90	60	90
Cc1c(Cc2ccccc2N(S(=O)(=O)C(F)(F)F)S(=O)(=O)C(F)(F)F)c(=O)on1C(C)c1ccc(Cl)cc1 (stereo not shown) [Compound 1-1034]	90	80	80	90	90	100	100	100
Cc1c(Cc2ccccc2N(S(=O)(=O)C(F)(F)F)S(=O)(=O)C(F)(F)F)c(=O)on1Cc1ccc(C#N)cc1 [Compound 1-1017]	80	80	80	0	90	60	90	40
Cc1c(Cc2ccccc2N(S(=O)(=O)C(F)(F)F)S(=O)(=O)C(F)(F)F)c(=O)on1C(C)c1ccccc1Cl (stereo not shown) [Compound 1-1032]	40	40	40	40	90	90	90	80
Cn1oc(=O)c(Cc2ccccc2NS(=O)(=O)C(F)(F)F)c1C(F)(F)F [Compound 1-78]	80	40	60	40	70	50	50	40
Cc1c(Cc2ccccc2N(S(=O)(=O)C(F)(F)F)S(=O)(=O)C(F)(F)F)c(=O)on1Cc1ccc(C(C)(C)C)cc1 [Compound 1-1019]	0	40	40	0	40	60	60	40
Cc1c(Cc2ccccc2NS(=O)(=O)C(F)(F)F)c(=O)on1Cc1cccs1 [Compound 1-231]	60	40	40	60	80	80	90	90
